Experimental findings from the supplement of paper PMC3974653 are described below.

Structures are written as SMILES. Where a name gives a salt, the structure may show the parent alone.

The subject of assay [1] is MTT (mouse pheochromocytoma). The assay is described as follows: IC50 of cell viability (ATP content); AC50 where efficacy is positive. To be noted: (24 or 48 h).
For assay [2], the system named is MTT (mouse pheochromocytoma). Kind of assay: efficacy (maximal response) relative to doxorubicin = -100% and DMSO = 0%; higher = less inhibition of viability. As to conditions: (24 or 48 h).

Turning to `CCOC(=O)c1c(N)sc2c1CCN(Cc1ccccc1)C2` [TINORIDINE HYDROCHLORIDE], in assay [1], the “IC50 of cell viability” value turned out to be 11.9 µM. Also, the efficacy in assay [2] is -45.5%.
In the case of `OCCN1CCN(CC/C=C2/c3ccccc3Sc3ccc(C(F)(F)F)cc32)CC1` [cis-(Z)-FLUPENTHIXOL], the “IC50 of cell viability” value in assay [1] was 23.7 µM. Also, the efficacy in assay [2] was -85.6%.
With `C=C1C(=O)O[C@@H]2[C@@H]1CC/C(C)=C\CC[C@@]1(C)O[C@H]21` [Parthenolide], in assay [1], the “IC50 of cell viability” value amounted to 8.41 µM. The efficacy in assay [2] is -104%.
Taken in the same sequence, the figures for `COc1cc(/C=C/C(=O)CC(=O)/C=C/c2ccc(O)c(OC)c2)ccc1O` [Curcumin] were 16.8 µM and -79.7%.
With `[Hg+2]` [Mercuric chloride], the “IC50 of cell viability” value in assay [1] stood at 2.37 µM. Moreover, the efficacy in assay [2] was -90.3%.
In the case of `CC(C)(C)CC(C)(C)c1ccc(OCCOCC[N+](C)(C)Cc2ccccc2)cc1` [Benzethonium chloride], the “IC50 of cell viability” value in assay [1] turned out to be 10.6 µM. The efficacy in assay [2] is -94.4%.
In the case of `CC(C)(Cc1c[nH]c2ccccc12)NCC(O)COc1ccccc1C#N` (stereo not given) [BUCINDOLOLUM], the “IC50 of cell viability” value in assay [1] stood at 11.9 µM. For the same compound, the efficacy in assay [2] was -41.7%.
In the case of `C/C(=C(/CCOC(=O)C(C)C)SS/C(CCOC(=O)C(C)C)=C(\C)N(C=O)Cc1cnc(C)nc1N)N(C=O)Cc1cnc(C)nc1N` [BISIBUTHIAMINE], in assay [1], the “IC50 of cell viability” value turned out to be 21.1 µM. Besides, the efficacy in assay [2] is -43.4%.
On the same counts, the results for `F\C1=C\NC(=O)NC1=O` [5-Fluorouracil] are 11.9 µM and -67.4%.
Taken in the same sequence, the figures for `Cc1cc(/C=C\c2ccc3cc(N(C)C)ccc3[n+]2C)c(C)n1-c1ccccc1.Cc1cc(/C=C\c2ccc3cc(N(C)C)ccc3[n+]2C)c(C)n1-c1ccccc1.O=C([O-])c1cc2ccccc2c(Cc2c(O)c(C(=O)[O-])cc3ccccc23)c1O` [Pyrvinium pamoate] were 0.64 µM and -33.3%.
On the same counts, the results for `CN(CCCN1c2ccccc2CCc2ccccc21)CC(=O)c1ccc(Cl)cc1` [LOFEPRAMINE HYDROCHLORIDE] are 26.6 µM and -62.9%.
Turning to `O=C(CCCCCCC(=O)Nc1ccccc1)NO` [SUBEROYLANILIDE HYDROXAMIC ACID], the “IC50 of cell viability” value in assay [1] was 2.37 µM. The efficacy in assay [2] is -58.6%.
For the compound `CC(C)OC(=O)Nc1ccc2[nH]c(-c3cscn3)nc2c1` [CAMBENDAZOLE], the “IC50 of cell viability” value in assay [1] turned out to be 8.41 µM. Also, the efficacy in assay [2] is -45.2%.
Taken in the same sequence, the figures for `Sc1ncnc2[nH]cnc12` [6-Mercaptopurine monohydrate] were 21.1 µM and -78.1%.
Take `COC(=O)Nc1nc2cc(C(=O)c3cccs3)ccc2[nH]1` [Nocodazole]: in assay [1], the “IC50 of cell viability” value turned out to be 0.531 µM. Besides, the efficacy in assay [2] was -60.2%.
Regarding `CNC(=O)c1cc(Oc2ccc(NC(=O)Nc3ccc(Cl)c(C(F)(F)F)c3)cc2)ccn1` [SORAFENIB TOSYLATE], the “IC50 of cell viability” value in assay [1] turned out to be 8.41 µM. The efficacy in assay [2] was -44.4%.
For the compound `COC(=O)[C@H]1[C@H]2C[C@@H]3c4[nH]c5ccccc5c4CCN3C[C@H]2C[C@@H](OC(=O)c2cc(OC)c(OC)c(OC)c2)[C@@H]1OC` [DESERPIDINE], the “IC50 of cell viability” value in assay [1] is 13.3 µM. Also, the efficacy in assay [2] is -92.6%.
With `COC(=O)Nc1nc2cc(C(=O)c3ccccc3)ccc2[nH]1` [Mebendazole], the “IC50 of cell viability” value in assay [1] amounted to 0.64 µM. Also, the efficacy in assay [2] is -49.2%.
On the same counts, the results for `C[C@@H]1CC[C@H]2[C@@H](C)C(=O)O[C@@H]3O[C@]4(C)CC[C@@H]1[C@@]32OO4` [Artemisinin] are 10.6 µM and -62%.
Taken in the same sequence, the figures for `COc1ccc(CCN2CCC(Nc3nc4ccccc4n3Cc3ccc(F)cc3)CC2)cc1` [ASTEMIZOLE] were 16.8 µM and -74.8%.
On the same counts, the results for `CCCCCCCCCCCC[N+](C)(C)CCOc1ccccc1` [Domiphen bromide] are 15 µM and -99.3%.
As to `Cc1cc(O)c2ccccc2c1O` [Menadiol], the “IC50 of cell viability” value in assay [1] amounted to 26.6 µM. Further, in assay [2], the efficacy is -94.6%.
On the same counts, the results for `C[N+]12CCCC[C@@H]1CCC(=C(c1cccs1)c1cccs1)C2` (stereo not given in full) [TIQUIZIUM BROMIDE] are 1.88 µM and -51.7%.
With `O=[N+]([O-])C(Br)(CO)CO` [Bronopol], the “IC50 of cell viability” value in assay [1] worked out at 15 µM. The efficacy in assay [2] is -58.4%.
As to `CN/C(=N/C#N)NCCSCc1nc[nH]c1C` [CIMETIDINE], the “IC50 of cell viability” value in assay [1] amounted to 13.3 µM. The efficacy in assay [2] was -40.4%.
As to `COc1cc(NCCCC(C)N)c2ncccc2c1` (stereo not given) [QUINOCIDUM], in assay [1], the “IC50 of cell viability” value is 18.8 µM. Moreover, the efficacy in assay [2] was -93.9%.
As to `Nc1ccc2cc3ccc(N)cc3nc2c1` [PROFLAVINE HEMISULFATE], the “IC50 of cell viability” value in assay [1] turned out to be 8.41 µM. Also, the efficacy in assay [2] is -91.5%.
Taken in the same sequence, the figures for `CN(C)C1=CC=C(C=C1)C(C2=CC=CC=C2)=C/3\C=C/C(/C=C3)=[N+](C)C` [Malachite Green Oxalate] were 8.41 µM and -61.3%.
Turning to `CCCCCCCC[N+](C)(C)CCCCCCCC` [Dioctyldimethylammonium chloride], the “IC50 of cell viability” value in assay [1] amounted to 0.531 µM. Further, in assay [2], the efficacy is -48.6%.
Taken in the same sequence, the figures for `CCOc1ccc(Cc2nccc3cc(OCC)c(OCC)cc23)cc1OCC` [Ethaverine hydrochloride] were 3.6 µM and -60%.
Taken in the same sequence, the figures for `CCCCC(=O)OCC(=O)[C@]1(O)Cc2c(O)c3c(c(O)c2[C@H](OC2CC(NC(=O)C(F)(F)F)C(O)C(C)O2)C1)C(=O)c1c(OC)cccc1C3=O` (stereo not given in full) [Valrubicin] were 16.8 µM and -78%.
With `COC(=O)Nc1nc2cc(Sc3ccccc3)ccc2[nH]1` [Fenbendazole], the “IC50 of cell viability” value in assay [1] is 1.01 µM. For the same compound, in assay [2], the efficacy is -61.4%.
Regarding `OC[C@H]1O[C@@H](n2cnc3c(S)ncnc32)[C@H](O)[C@@H]1O` [Thionosine], the “IC50 of cell viability” value in assay [1] stood at 18.8 µM. Also, in assay [2], the efficacy was -85.4%.
`COc1ccc2cc3[n+](cc2c1OC)CCc1cc2c(cc1-3)OCO2` [Berberine chloride]: in assay [1], the “IC50 of cell viability” value was 4.22 µM. Besides, the efficacy in assay [2] was -53.9%.
Taken in the same sequence, the figures for `CCCCCCNC(=O)N1\C=C(F)/C(=O)NC1=O` [CARMOFUR] were 1.88 µM and -56.9%.
Taken in the same sequence, the figures for `C[N+]1(CC2COC(c3ccccc3)(C3CCCCC3)O2)CCCCC1` (stereo not given) [OXAPIUM IODIDE] were 6.68 µM and -60.2%.
On the same counts, the results for `CCCCCCCCCCCCCCCC[N+](C)(C)Cc1ccccc1.O.[Cl-]` [CETALKONIUM CHLORIDE] are 15 µM and -56.9%.
On to `CC(=O)[C@]1(O)Cc2c(O)c3c(c(O)c2[C@@H](O[C@H]2C[C@H](N)[C@H](O)[C@H](C)O2)C1)C(=O)c1c(O)cccc1C3=O` [CARUBICINUM], for which the “IC50 of cell viability” value in assay [1] is 2.99 µM. Further, the efficacy in assay [2] is -59.2%.
As to `[Zn++].[O-]N1\C=C/C=C\C1=S.[O-]N2\C=C/C=C\C2=S` [Zinc pyrithione], the “IC50 of cell viability” value in assay [1] amounted to 2.11 µM. Further, in assay [2], the efficacy is -90.6%.
As for `O=S(=O)([O-])c1ccc2c(/N=N/c3ccc(S(=O)(=O)[O-])c4ccccc34)c(O)c(S(=O)(=O)[O-])cc2c1` [FD & C Red Dye No. 2], the “IC50 of cell viability” value in assay [1] came out at 16.8 µM. Further, in assay [2], the efficacy was -95.8%.
Consider `CN[C@H]1CC[C@@H](c2ccc(Cl)c(Cl)c2)c2ccccc21` [Sertraline hydrochloride (Zoloft)], for which the “IC50 of cell viability” value in assay [1] is 15 µM. In addition, the efficacy in assay [2] was -39.9%.
In the case of `Cl.CCC1=C2CN3C(=O)\C4=C(/C=C3/C2=NC5=CC=C(OC(=O)N6CCC(CC6)N7CCCCC7)C=C15)[C@@](O)(CC)C(=O)OC4` [IRINOTECAN HYDROCHLORIDE], the “IC50 of cell viability” value in assay [1] is 11.9 µM. For the same compound, the efficacy in assay [2] is -66.8%.
`Cl.Nc1c2ccccc2nc2ccccc12.O` [9-Aminoacridine HCl H2O]: in assay [1], the “IC50 of cell viability” value came out at 21.1 µM. Also, in assay [2], the efficacy is -110%.
`CC(C)(C)c1ccc(C(=O)CCCN2CCC(OC(c3ccccc3)c3ccccc3)CC2)cc1` [Ebastine]: in assay [1], the “IC50 of cell viability” value worked out at 9.44 µM. The efficacy in assay [2] was -49.3%.
Taken in the same sequence, the figures for `O=C(CCCCCCC(=O)Nc1ccccc1)NO` [Suberoylanilide Hydroxamic Acid] were 0.0531 µM and -43.5%.
Taken in the same sequence, the figures for `ClC(Cl)(Cl)SN1C(=O)C2C\C=C/CC2C1=O` (stereo not given) [Captan] were 2.99 µM and -65.8%.
With `CC[C@@]1(O)C[C@H](O[C@H]2C[C@@H](N(C)C)[C@@H](O[C@H]3C[C@@H](O)[C@@H](O[C@H]4CCC(=O)[C@@H](C)O4)[C@@H](C)O3)[C@@H](C)O2)c2c(cc3c(c2O)C(=O)c2c(O)cccc2C3=O)[C@H]1C(=O)OC` [ACLARUBICIN HYDROCHLORIDE], the “IC50 of cell viability” value in assay [1] worked out at 2.11 µM. Besides, in assay [2], the efficacy was -41.5%.
Regarding `Oc1ccc(OCc2ccccc2)cc1` [Monobenzone], the “IC50 of cell viability” value in assay [1] turned out to be 10.1 µM. The efficacy in assay [2] was -55.4%.
Take `O=S(=O)([O-])c1cc(O)c2c(/N=N/c3ccc(Nc4ccccc4)c4c(S(=O)(=O)[O-])cccc34)cc(S(=O)(=O)[O-])cc2c1` [ANAZOLENUM NATRICUM]: the “IC50 of cell viability” value in assay [1] is 2.37 µM. In assay [2], the efficacy is -33.8%.
Taken in the same sequence, the figures for `O=C(Nc1ccc(Br)cc1)c1cc(Br)c(Br)s1` [Tibrofan] were 26.6 µM and -64.5%.
